# Data as given in publication PMC5054302 (Molecular and biochemical parasitology, 2011).
# Like-named read-outs stand apart in the source and are kept apart here.
# Columns and labels:
# P. berghei liver stages = test: microbe, parasite or virus in culture; format: cell-based, Plasmodium berghei; conditions: for Selectivity index: IC50 against hepatocytes divided by IC50 for P. berghei liver stage development
# [1] = test system: P. falciparum TM90C2B (C2B isolates, Y268S cytochrome b); test: Radio-labeled hypoxanthine growth assay, atovaquone-resistant C2B isolates; format: cell-based, Plasmodium falciparum
# HepG2 cells = test: cells; format: cell-based, human; conditions: read-out: Hepatocyte counterscreen
# [2] = test system: cytochrome bc1 complex, L275F yeast cytochrome b mutant; format: biochemical, Saccharomyces cerevisiae; conditions: IC50 against L275F mutant enzyme divided by IC50 of wild-type enzyme
# [3] = test system: cytochrome bc1 complex, M139L yeast cytochrome b mutant; format: biochemical, Saccharomyces cerevisiae; conditions: IC50 against M139L mutant enzyme divided by IC50 of wild-type enzyme
# [4] = molecular target: cytochrome bc1 complex, Y279S yeast cytochrome b mutant (Saccharomyces cerevisiae, UniProt P00163+P08067, Y279S); format: biochemical
compound,measurement,setting,value
"O=C1C(O)=C([C@H]2CC[C@H](c3ccc(Cl)cc3)CC2)C(=O)c2ccccc21 [Atovaquone, reference compound]",IC50,"P. berghei liver stages; Plasmodium berghei, HepG2, 48 h, read-out: IC50 against P. berghei",0.0197 µM
same,IC50,[1],6.6 to 7.1 µM
same,IC50,"HepG2 cells; Homo sapiens, HepG2, 48 h",38.4 µM
"CC(CCCCCC(F)(F)F)CC1=C(O)C(=O)c2ccccc2C1=O (stereo not shown) [NQ1, 2-OH-3-(2-methyl-trifluorooctyl)-naphthoquinone]",Selectivity index,P. berghei liver stages,399
same,Relative efficacy,[2],< 1.0
same,Relative efficacy,[3],< 1.0
same,IC50,"HepG2 cells; MTT, HepG2 cells alone, 48 h",6.83 µM
"CCCCCCC(C)CC1=C(O)C(=O)c2c(C)cccc2C1=O (stereo not shown) [NQ2, 2-OH-3-(2-methyl-octyl)-8-methyl-naphthoquinone]",Selectivity index,P. berghei liver stages,10.1
same,Relative efficacy,[4]; IC50 against Y279S mutant enzyme divided by IC50 of wild-type enzyme,0.37
same,Extent of inhibition of Y279S enzyme activity,"[4]; at 500 nM, biphasic titration",did not reach complete inhibition
same,IC50,"HepG2 cells; MTT, HepG2 cells alone, 48 h",2.48 µM
"Cc1cccc2c1C(=O)C(O)=C(CC(C)CCCCCC(F)(F)F)C2=O (stereo not shown) [NQ3, 2-OH-3-(2-methyl-trifluorooctyl)-8-methyl-naphthoquinone]",IC50,"HepG2 cells; MTT, HepG2 cells alone, 48 h",> 54.3 µM
"CCCCCCC(C)CC1=C(O)C(=O)c2ccccc2C1=O (stereo not shown) [S-10576, reference compound]",IC50,"HepG2 cells; MTT, HepG2 cells alone, 48 h",> 66.6 µM
